Experimental data: US20240398752A1 (AJOU UNIVERSITY INDUSTRY-ACADEMIC COOPERATION FOUNDATION, priority 2021, published 2024)

Columns and labels:
[1] = Experimental: In the experiment, the concentration of tofacitinib was set at 5, 10, 20, 50, 100, 200, and 500 μM, 1 mg of microsomes and nicotinamide adenine dinucleotide phosphate hydrogen-generating system (Corning Inc., Corning, NY, USA) were blended, and the total volume was adjusted to 1 mL with 0.1 M potassium phosphate buffer (pH 7.4), followed by incubation for 15 minutes at a rate of 50 oscillations per minutes in a water-bath (37° C.). The concentration (Km) of tofacitinib when Vmax, the maximum rate of drug metabolism (Vmax), was halved was measured by the Lineweaver-Burk plot. The intrinsic clearance (CLint) of the drug was calculated by dividing Vmax by Km.
in vivo = conditions: for clearance: CL; for CL renal: CLR; for half-life: Terminal half-life; for Vd: Vss; for Ae0-24 h: urine 24 hours; for reduction in AUC in the LC-ISN group compared to the LC group: isosakuranetin 15 mg/kg
Experimental: Blood collection was performed at 0, 1, 5, 15, 30, 45, 60, 90, 120, 180, 240, 360, 480, 600, and 720 minutes for intravenous administration of tofacitinib, and at 0, 5, 15, 30, 45, 60, 90, 120, 180, 240, 360, 480, 600, and 720 minutes for oral administration to quantify concentrations of tofacitinib in the plasma. Then, urine was collected for 24 hours to analyze the concentration of tofacitinib excreted in urine as well.

[2] = rat, in vivo, iv, 10 mg/kg, tofacitinib 10 mg/kg intravenous, CON rats
[3] = rat, in vivo, iv, 10 mg/kg, tofacitinib 10 mg/kg intravenous, LC rats
[4] = rat, in vivo, iv, 10 mg/kg, tofacitinib 10 mg/kg intravenous, LC-ISN rats
[5] = rat, in vivo, po, 20 mg/kg, tofacitinib 20 mg/kg oral, CON rats
[6] = rat, in vivo, po, 20 mg/kg, tofacitinib 20 mg/kg oral, LC-ISN 15 rats
[7] = rat, in vivo, po, 20 mg/kg, tofacitinib 20 mg/kg oral, LC rats
[8] = tofacitinib 10 mg/kg intravenous
[9] = tofacitinib 10 mg/kg intravenous, CON rats
[10] = tofacitinib 10 mg/kg intravenous, LC rats
[11] = tofacitinib 10 mg/kg intravenous, LC-ISN rats
[12] = tofacitinib 20 mg/kg oral, CON rats
[13] = tofacitinib 20 mg/kg oral, LC rats
[14] = tofacitinib 20 mg/kg oral, LC-ISN 15 rats

## C[C@@H]1CCN(C(=O)CC#N)C[C@@H]1N(C)c1ncnc2[nH]ccc12 [tofacitinib]
[1]; hepatic microsome
  Km in the three groups (CON, LC, LC-ISN): No significant difference
  decrease of Vmax in the LC group compared to the CON group: 63.4%
  increase of Vmax in the LC-ISN group compared to the LC group: 204%
[1]; hepatic microsomes
  CLint of the LC-ISN group recovered to % of the CON group: 92.2%
  decrease of CLint in the LC group compared to the CON group: 64.9%
  increase of CLint in the LC-ISN group compared to the LC group: 163%
[1]; small intestinal microsome
  CLint in the LC group compared to the CON group and the LC-ISN group: no statistically significant difference
In vivo; rat, in vivo, iv, 10 mg/kg, AUC, tofacitinib 10 mg/kg intravenous, CON rats
  AUC: 7330 ng·h/mL
In vivo; rat, in vivo, iv, 10 mg/kg, AUC, tofacitinib 10 mg/kg intravenous, LC rats
  AUC: 18900 ng·h/mL
In vivo; [2]
  clearance: 24.1 ± 6.27 mL/min/kg
  CL renal: 3.73 ± 1.09 mL/min/kg
  Vd: 0.429 ± 0.253 L/kg
In vivo; [3]
  clearance: 11 ± 2.06 mL/min/kg
  CL renal: 4.65 ± 2.74 mL/min/kg
  Vd: 0.798 ± 0.177 L/kg
In vivo; [4]
  clearance: 13.8 ± 1.73 mL/min/kg
  CL renal: 4.1 ± 1.64 mL/min/kg
  Vd: 0.8 ± 0.326 L/kg
In vivo; rat, in vivo, iv, 10 mg/kg, tofacitinib 10 mg/kg intravenous, CON (control) rats
  half-life: 35.4 ± 19.2 min
In vivo; rat, in vivo, iv, 10 mg/kg, tofacitinib 10 mg/kg intravenous, LC rats (liver cirrhosis induced by DMN)
  half-life: 113 ± 43.7 min
In vivo; rat, in vivo, po, 20 mg/kg, AUC, tofacitinib 20 mg/kg oral, CON rats
  AUC: 6400 ng·h/mL
In vivo; rat, in vivo, po, 20 mg/kg, AUC, tofacitinib 20 mg/kg oral, LC rats
  AUC: 33800 ng·h/mL
In vivo; rat, in vivo, po, 20 mg/kg, AUC, tofacitinib 20 mg/kg oral, LC-ISN 15 rats
  AUC: 20700 ng·h/mL
In vivo; [5]
  CL renal: 6.98 ± 2.99 mL/min/kg
  Cmax: 3530 ± 1460 ng/mL
  Tmax: 50 min
In vivo; [6]
  CL renal: 5.71 ± 2.47 mL/min/kg
  Cmax: 6080 ± 1990 ng/mL
  Tmax: 85.7 min
In vivo; [7]
  Cmax: 9100 ± 1260 ng/mL
  Tmax: 55.7 min
In vivo; [8]
  increase of AUC in the LC group compared to the CON group: 158%
  reduction in nonrenal clearance (CLNR) in the LC group compared to the CON group: 69.9%
  reduction in total body clearance (CL) in the LC group compared to the CON group: 54.4%
  reduction in AUC in the LC-ISN group compared to the LC group: 35.1%
In vivo; [9]
  CLNR: 21.1 ± 4.57 mL/min/kg
  GI24 h: 0.164 ± 0.102 % of dose
  Ae0-24 h: 13.9 ± 2.28 % of dose
In vivo; [10]
  CLNR: 6.35 ± 1.27 mL/min/kg
  GI24 h: 2.07 ± 2.12 % of dose
  Ae0-24 h: 40.2 ± 18.9 % of dose
In vivo; [11]
  AUC: 12300 ± 1780 ng·h/mL
  CLNR: 9.68 ± 2.40 mL/min/kg
  GI24 h: 0.166 ± 0.135 % of dose
  Ae0-24 h: 30.1 ± 12.3 % of dose
In vivo; tofacitinib 10 mg/kg intravenous, LC-ISN rats (LC treated with isosakuranetin 15 mg/kg)
  Terminal half-life: 58.2 ± 16.8 min
In vivo; tofacitinib 20 mg/kg oral
  increase of AUC in the LC group compared to the CON group: 429%
  reduction in AUC in the LC-ISN group compared to the LC group: 38.9%
In vivo; [12]
  F: 43.6%
  GI24 h: 0.106 ± 0.101 % of dose
  Ae0-24 h: 11.8 ± 4.08 % of dose
In vivo; [13]
  CLR: 3.62 ± 1.78 mL/min/kg
  F: 89.5%
  GI24 h: 1.73 ± 2.04 % of dose
  Ae0-24 h: 35.8 ± 16.9 % of dose
In vivo; [14]
  F: 84.1%
  GI24 h: 0.340 ± 0.288 % of dose
  Ae0-24 h: 35.9 ± 16.8 % of dose
